Laboratory results published in ChEMBL document CHEMBL3217753, “Discovery of selective 2,4-diaminopyrimidine-based photoaffinity probes for glyoxalase I” (Medchemcomm, 2014).
Calls of active or inactive are those of the source. The rule behind the calls is not given here.

How the values were obtained:
HeLa [1] = test: Ratio of GI50 for human HeLa cells in presence of 5 mM glucose to GI50 for human HeLa cells in presence of 25 mM glucose; assay type: functional
A549 [2] = test: Growth inhibition of human A549 cells after 48 hrs by CellTiter-Glo assay in presence of 5 mM glucose; assay type: functional; details: A549, 48 h
A549 [3] = test: Growth inhibition of human A549 cells after 48 hrs by CellTiter-Glo assay in presence of 25 mM glucose; assay type: functional; details: A549, 48 h
HeLa [4] = test: Growth inhibition of human HeLa cells after 48 hrs by CellTiter-Glo assay in presence of 5 mM glucose; assay type: functional
HeLa [5] = test: Growth inhibition of human HeLa cells after 48 hrs by CellTiter-Glo assay in presence of 25 mM glucose; assay type: functional
NCI-H522 [6] = test: Growth inhibition of human NCI-H522 cells after 48 hrs by CellTiter-Glo assay in presence of 5 mM glucose; assay type: functional; details: NCI-H522, 48 h
NCI-H522 [7] = test: Growth inhibition of human NCI-H522 cells after 48 hrs by CellTiter-Glo assay in presence of 25 mM glucose; assay type: functional; details: NCI-H522, 48 h
Lactoylglutathione lyase [8] = target: T1, Lactoylglutathione lyase (Homo sapiens, UniProt Q04760); test: Inhibition of recombinant GLO-1 (unknown origin) assessed as S-D-lactoylglutathione formation preincubated for 1 hr followed by methylglyoxal and GSH addition measured after 9 mins by spectrophotometric analysis
Target sequence in this assay (Q04760 whole entry): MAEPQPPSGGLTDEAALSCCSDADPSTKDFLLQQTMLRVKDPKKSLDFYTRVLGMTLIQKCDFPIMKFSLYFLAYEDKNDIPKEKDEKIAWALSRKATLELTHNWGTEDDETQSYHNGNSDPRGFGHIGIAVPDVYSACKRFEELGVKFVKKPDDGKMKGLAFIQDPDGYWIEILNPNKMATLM

Lactoylglutathione lyase [9] = target: T1, Lactoylglutathione lyase; test: Competitive binding affinity to dimeric form of GLO-1 in HEK293T cells at 20 uM incubated for 6 hrs followed by UV-irradiation for 1 hr by fluorescence assay in presence of N-(4-(4-(5-fluoro-4-(2-(methylsulfonamido)phenylamino)pyrimidin-2-ylamino)benzoyl)phenyl)hex-5-ynamide; assay type: cell-based; details: HEK-293T
Target sequence in this assay (Q04760 2-184 limits assumed): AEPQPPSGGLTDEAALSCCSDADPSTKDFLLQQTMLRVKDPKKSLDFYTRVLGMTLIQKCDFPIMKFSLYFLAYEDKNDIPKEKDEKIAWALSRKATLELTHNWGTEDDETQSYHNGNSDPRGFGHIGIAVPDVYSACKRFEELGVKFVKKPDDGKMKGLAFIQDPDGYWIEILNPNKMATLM

Lactoylglutathione lyase [10] = target: T1, Lactoylglutathione lyase; test: Competitive binding affinity to monomeric form of GLO-1 in HEK293T cells at 20 uM incubated for 6 hrs followed by UV-irradiation for 1 hr by fluorescence assay in presence of N-(4-(4-(5-fluoro-4-(2-(methylsulfonamido)phenylamino)pyrimidin-2-ylamino)benzoyl)phenyl)hex-5-ynamide; assay type: cell-based; details: HEK-293T
Target sequence in this assay (Q04760 2-184 limits assumed): as above

Lactoylglutathione lyase [11] = target: T1, Lactoylglutathione lyase; test: Competitive binding affinity to dimeric form of GLO-1 in HEK293T cell lysate at 20 uM after overnight incubation followed by UV-irradiation for 1 hr by fluorescence assay in presence of N-(4-(4-(5-fluoro-4-(2-(methylsulfonamido)phenylamino)pyrimidin-2-ylamino)benzoyl)phenyl)hex-5-ynamide; assay type: cell-based; details: HEK-293T
Target sequence in this assay (Q04760 2-184 limits assumed): as above

Lactoylglutathione lyase [12] = target: T1, Lactoylglutathione lyase; test: Competitive binding affinity to monomeric form of GLO-1 in HEK293T cell lysate at 20 uM after overnight incubation followed by UV-irradiation for 1 hr by fluorescence assay in presence of N-(4-(4-(5-fluoro-4-(2-(methylsulfonamido)phenylamino)pyrimidin-2-ylamino)benzoyl)phenyl)hex-5-ynamide; assay type: cell-based; details: HEK-293T
Target sequence in this assay (Q04760 2-184 limits assumed): as above

HeLa [13] = test: Induction of apoptosis in human HeLa cells under high glucose condition assessed as nuclear fragmentation at 5 uM after 24 hrs by DAPI staining-based fluorescence microscopic analysis; assay type: functional, cell-based
HeLa [14] = test: Induction of apoptosis in human HeLa cells under high glucose condition assessed as caspase-3 degradation at 1 to 50 uM after 24 hrs by Western blotting analysis; assay type: functional, cell-based
Lactoylglutathione lyase [15] = target: T1, Lactoylglutathione lyase; test: Inhibition of GLO-1 in human HeLa cells under high glucose condition assessed as increase in methylglyoxal level at 5 uM after 24 hrs by spectrophotometric analysis; assay type: cell-based
Target sequence in this assay (Q04760 2-184 limits assumed): as above

Lactoylglutathione lyase [16] = target: T1, Lactoylglutathione lyase; test: Competitive binding affinity to GLO-1 in human HeLa cells at 100 uM incubated for 6 hrs followed by UV-irradiation for 1 hr by fluorescence microscopic analysis in presence of N-(4-(4-(5-fluoro-4-(2-(methylsulfonamido)phenylamino)pyrimidin-2-ylamino)benzoyl)phenyl)hex-5-ynamide; assay type: cell-based
Target sequence in this assay (Q04760 2-184 limits assumed): as above

Lactoylglutathione lyase [17] = target: T1, Lactoylglutathione lyase; test: Competitive binding affinity to human recombinant GLO-1 at 50 uM in presence of N-(4-(4-(5-fluoro-4-(2-(methylsulfonamido)phenylamino)pyrimidin-2-ylamino)benzoyl)phenyl)-5-((3aS,4S,6aR)-2-oxohexahydro-1H-thieno[3,4-d]imidazol-4-yl)pentanamide
Lactoylglutathione lyase [18] = target: T1, Lactoylglutathione lyase; test: (§1) Competitive binding affinity to GLO-1 in HEK293T cell lysate at 50 uM after overnight incubation followed by UV-irradiation for 1 hr by Western blotting analysis in presence of N-(4-(4-(5-fluoro-4-(2-(methylsulfonamido)phenylamino)pyrimidin-2-ylamino)benzoyl)phenyl)-5-((3aS,4S,6aR)-2-oxohexahydro-1H-thieno[3,4-d]imidazol-4-yl)pentanamide; assay type: cell-based; details: HEK-293T
Lactoylglutathione lyase [19] = target: T1, Lactoylglutathione lyase; test: as §1, with “pull-down assay” for “Western blotting analysis”; assay type: cell-based; details: HEK-293T
Lactoylglutathione lyase [20] = target: T1, Lactoylglutathione lyase; test: Binding affinity to GLO-1 in live HEK293T cells by pull-down assay; assay type: cell-based; details: HEK-293T

Compound | Ratio IC50 (HeLa [1]) | GI50 (A549 [2]) | GI50 (A549 [3]) | GI50 (HeLa [4]) | GI50 (HeLa [5]) | GI50 (NCI-H522 [6]) | GI50 (NCI-H522 [7]) | IC50 (Lactoylglutathione lyase [8]) | Activity (Lactoylglutathione lyase [9]) | Activity (Lactoylglutathione lyase [10]) | Activity (Lactoylglutathione lyase [11]) | Activity (Lactoylglutathione lyase [12]) | Activity (HeLa [13]) | Activity (HeLa [14]) | inhibition (Lactoylglutathione lyase [15]) | Activity (Lactoylglutathione lyase [16]) | Activity (Lactoylglutathione lyase [17]) | Activity (Lactoylglutathione lyase [18]) | Activity (Lactoylglutathione lyase [19]) | Activity (Lactoylglutathione lyase [20])
CS(=O)(=O)Nc1ccccc1Nc1nc(Nc2ccc(Oc3ccccc3)cc2)ncc1F | 2.6 | 37.4 µM | 26.9 µM | 14 µM | 7.3 µM | 8.3 µM | 7.3 µM | 45.8 nM |  |  |  |  |  |  |  |  |  |  |  | 
C#CCCCC(=O)Nc1ccc(C(=O)c2ccc(Nc3ncc(F)c(Nc4ccccc4NS(C)(=O)=O)n3)cc2)cc1 |  | 15.5 µM | 13.3 µM | 5.7 µM | 4.6 µM | 2.7 µM | 2.9 µM | 26.4 nM | Active | Active | Active | Active | Active | Active | Active | Active |  |  |  | 
CS(=O)(=O)Nc1ccccc1Nc1nc(Nc2ccc(C(=O)OCc3ccccc3)cc2)ncc1F | 2.6 | > 50 µM | > 50 µM | 61.9 µM | 37 µM | 40.2 µM | 16.5 µM | 51.3 nM |  |  |  |  |  |  |  |  |  |  |  | 
CS(=O)(=O)Nc1ccccc1Nc1nc(Nc2ccc(C(=O)c3ccc(NC(=O)CCCC[C@@H]4SC[C@@H]5NC(=O)N[C@@H]54)cc3)cc2)ncc1F |  |  |  |  |  |  |  |  |  |  |  |  |  |  |  |  | Active | Active | Active | inactive
CS(=O)(=O)Nc1ccccc1Nc1nc(Nc2ccc(Cl)cc2)ncc1F | 2.6 | > 50 µM | > 50 µM | 61 µM | 23.2 µM | 25 µM | 12.2 µM | 53.9 nM |  |  |  |  |  |  |  |  |  |  |  | 
